PubChem BioAssay (NCI)
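Step 1: Grow cells in 96-well plates. Step 2: Expose to compound for 48 hours at 5 concentrations. Step 3: Interpolate endpoints linearly; if unreached, use highest concentration. GI50 marks 50% less growth. TGI: total growth inhibition.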

test system: NCI-H226 lung; test: DTP human tumour cell line panel, 48 h

Structure (SMILES)	GI50 [µM]	TGI [µM]
COc1ccc(-c2nn(-c3ccc(NC(=O)Nc4cc(C(F)(F)F)cc(C(F)(F)F)c4)cc3)cc2-c2ccncc2)cc1Cl	4.1	34.2
O=C(CCC1OCCO1)Nc1cc(NCc2ccccc2)ccc1OCc1ccccc1		> 100
ClCc1cccc(Cn2cnc3nc(Cl)nc(Cl)c32)c1	1.04	3.54

test system: NCI-H23 lung; test: DTP human tumour cell line panel, 48 h

Structure (SMILES)	GI50 [µM]	TGI [µM]
Cc1ncc(CCCN(C)C)cc1Nc1ncc2c(n1)-c1ccc(C(F)(F)F)cc1NC(=S)C2	< 0.0138	17.1
COc1ccc(-c2nn(-c3ccc(NC(=O)Nc4cc(C(F)(F)F)cc(C(F)(F)F)c4)cc3)cc2-c2ccncc2)cc1Cl	2.78	> 100
O=C(CCC1OCCO1)Nc1cc(NCc2ccccc2)ccc1OCc1ccccc1		> 100
ClCc1cccc(Cn2cnc3nc(Cl)nc(Cl)c32)c1	1.29	2.56

test system: NCI-H460 lung; test: DTP human tumour cell line panel, 48 h

Structure (SMILES)	GI50 [µM]	TGI [µM]
Cc1ncc(CCCN(C)C)cc1Nc1ncc2c(n1)-c1ccc(C(F)(F)F)cc1NC(=S)C2	< 0.0178	11.9
COc1ccc(-c2nn(-c3ccc(NC(=O)Nc4cc(C(F)(F)F)cc(C(F)(F)F)c4)cc3)cc2-c2ccncc2)cc1Cl	1.91	5.95
O=C(CCC1OCCO1)Nc1cc(NCc2ccccc2)ccc1OCc1ccccc1		> 100
ClCc1cccc(Cn2cnc3nc(Cl)nc(Cl)c32)c1	1.72	3.09

test system: NCI-H522 lung; test: DTP human tumour cell line panel, 48 h

Structure (SMILES)	GI50 [µM]	TGI [µM]
Cc1ncc(CCCN(C)C)cc1Nc1ncc2c(n1)-c1ccc(C(F)(F)F)cc1NC(=S)C2	< 0.01	18.1
COc1ccc(-c2nn(-c3ccc(NC(=O)Nc4cc(C(F)(F)F)cc(C(F)(F)F)c4)cc3)cc2-c2ccncc2)cc1Cl	1.9	7.01
O=C(CCC1OCCO1)Nc1cc(NCc2ccccc2)ccc1OCc1ccccc1		78.6
ClCc1cccc(Cn2cnc3nc(Cl)nc(Cl)c32)c1	1.84	3.79

test system: NCI/ADR-RES ovarian; test: DTP human tumour cell line panel, 48 h

Structure (SMILES)	GI50 [µM]	TGI [µM]
Cc1cc(C(C)(C)CC(C)(C)C)ccc1OCCOCC[N+](C)(C)Cc1ccccc1	15.3	51
Cc1ncc(CCCN(C)C)cc1Nc1ncc2c(n1)-c1ccc(C(F)(F)F)cc1NC(=S)C2	0.172	> 67.7
COc1ccc(-c2nn(-c3ccc(NC(=O)Nc4cc(C(F)(F)F)cc(C(F)(F)F)c4)cc3)cc2-c2ccncc2)cc1Cl	2.91	> 100
O=C(CCC1OCCO1)Nc1cc(NCc2ccccc2)ccc1OCc1ccccc1		> 100

test system: OVCAR-3 ovarian; test: DTP human tumour cell line panel, 48 h

Structure (SMILES)	GI50 [µM]	TGI [µM]
Cc1ncc(CCCN(C)C)cc1Nc1ncc2c(n1)-c1ccc(C(F)(F)F)cc1NC(=S)C2	0.0582	15.2
COc1ccc(-c2nn(-c3ccc(NC(=O)Nc4cc(C(F)(F)F)cc(C(F)(F)F)c4)cc3)cc2-c2ccncc2)cc1Cl	2.32	8.85
ClCc1cccc(Cn2cnc3nc(Cl)nc(Cl)c32)c1	1.53	2.86

test system: OVCAR-4 ovarian; test: DTP human tumour cell line panel, 48 h

Structure (SMILES)	GI50 [µM]	TGI [µM]
Cc1ncc(CCCN(C)C)cc1Nc1ncc2c(n1)-c1ccc(C(F)(F)F)cc1NC(=S)C2	1.22	> 100
COc1ccc(-c2nn(-c3ccc(NC(=O)Nc4cc(C(F)(F)F)cc(C(F)(F)F)c4)cc3)cc2-c2ccncc2)cc1Cl	2.82	60.7
O=C(CCC1OCCO1)Nc1cc(NCc2ccccc2)ccc1OCc1ccccc1		> 100
ClCc1cccc(Cn2cnc3nc(Cl)nc(Cl)c32)c1	1.56	3.21

test system: OVCAR-5 ovarian; test: DTP human tumour cell line panel, 48 h

Structure (SMILES)	GI50 [µM]	TGI [µM]
Cc1cc(C(C)(C)CC(C)(C)C)ccc1OCCOCC[N+](C)(C)Cc1ccccc1	1.71	3.45
Cc1ncc(CCCN(C)C)cc1Nc1ncc2c(n1)-c1ccc(C(F)(F)F)cc1NC(=S)C2	< 0.0237	> 51.1
COc1ccc(-c2nn(-c3ccc(NC(=O)Nc4cc(C(F)(F)F)cc(C(F)(F)F)c4)cc3)cc2-c2ccncc2)cc1Cl	2.64	14.7
O=C(CCC1OCCO1)Nc1cc(NCc2ccccc2)ccc1OCc1ccccc1		> 100
ClCc1cccc(Cn2cnc3nc(Cl)nc(Cl)c32)c1	1.63	3.31

test system: OVCAR-8 ovarian; test: DTP human tumour cell line panel, 48 h

Structure (SMILES)	GI50 [µM]	TGI [µM]
Cc1ncc(CCCN(C)C)cc1Nc1ncc2c(n1)-c1ccc(C(F)(F)F)cc1NC(=S)C2	< 0.0179	23.1
COc1ccc(-c2nn(-c3ccc(NC(=O)Nc4cc(C(F)(F)F)cc(C(F)(F)F)c4)cc3)cc2-c2ccncc2)cc1Cl	3.27	> 100
O=C(CCC1OCCO1)Nc1cc(NCc2ccccc2)ccc1OCc1ccccc1		58.6
ClCc1cccc(Cn2cnc3nc(Cl)nc(Cl)c32)c1	9.24	21.2

test system: PC-3 prostate; test: DTP human tumour cell line panel, 48 h

Structure (SMILES)	GI50 [µM]	TGI [µM]
Cc1ncc(CCCN(C)C)cc1Nc1ncc2c(n1)-c1ccc(C(F)(F)F)cc1NC(=S)C2	< 0.0207	24.5
COc1ccc(-c2nn(-c3ccc(NC(=O)Nc4cc(C(F)(F)F)cc(C(F)(F)F)c4)cc3)cc2-c2ccncc2)cc1Cl	1.73	> 100
ClCc1cccc(Cn2cnc3nc(Cl)nc(Cl)c32)c1	0.644	2.06

test system: RPMI-8226 leukemia; test: DTP human tumour cell line panel, 48 h

Structure (SMILES)	GI50 [µM]	TGI [µM]
Cc1ncc(CCCN(C)C)cc1Nc1ncc2c(n1)-c1ccc(C(F)(F)F)cc1NC(=S)C2	0.0434	21.1
COc1ccc(-c2nn(-c3ccc(NC(=O)Nc4cc(C(F)(F)F)cc(C(F)(F)F)c4)cc3)cc2-c2ccncc2)cc1Cl	1.23	3.58
O=C(CCC1OCCO1)Nc1cc(NCc2ccccc2)ccc1OCc1ccccc1		> 100
ClCc1cccc(Cn2cnc3nc(Cl)nc(Cl)c32)c1	1.72	4.15

test system: RXF 393 renal; test: DTP human tumour cell line panel, 48 h

Structure (SMILES)	GI50 [µM]	TGI [µM]
COc1ccc(-c2nn(-c3ccc(NC(=O)Nc4cc(C(F)(F)F)cc(C(F)(F)F)c4)cc3)cc2-c2ccncc2)cc1Cl	1.69	3.87
O=C(CCC1OCCO1)Nc1cc(NCc2ccccc2)ccc1OCc1ccccc1		77.8
ClCc1cccc(Cn2cnc3nc(Cl)nc(Cl)c32)c1	1.33	2.92

test system: SF-268 CNS; test: DTP human tumour cell line panel, 48 h

Structure (SMILES)	GI50 [µM]	TGI [µM]
Cc1ncc(CCCN(C)C)cc1Nc1ncc2c(n1)-c1ccc(C(F)(F)F)cc1NC(=S)C2	< 0.0195	13.8
COc1ccc(-c2nn(-c3ccc(NC(=O)Nc4cc(C(F)(F)F)cc(C(F)(F)F)c4)cc3)cc2-c2ccncc2)cc1Cl	3.71	85.8
O=C(CCC1OCCO1)Nc1cc(NCc2ccccc2)ccc1OCc1ccccc1		> 100
ClCc1cccc(Cn2cnc3nc(Cl)nc(Cl)c32)c1	1.38	3.83

test system: SF-295 CNS; test: DTP human tumour cell line panel, 48 h

Structure (SMILES)	GI50 [µM]	TGI [µM]
Cc1ncc(CCCN(C)C)cc1Nc1ncc2c(n1)-c1ccc(C(F)(F)F)cc1NC(=S)C2	< 0.01	2.7
COc1ccc(-c2nn(-c3ccc(NC(=O)Nc4cc(C(F)(F)F)cc(C(F)(F)F)c4)cc3)cc2-c2ccncc2)cc1Cl	2.52	> 100
O=C(CCC1OCCO1)Nc1cc(NCc2ccccc2)ccc1OCc1ccccc1		> 100
ClCc1cccc(Cn2cnc3nc(Cl)nc(Cl)c32)c1	2.02	3.78

test system: SF-539 CNS; test: DTP human tumour cell line panel, 48 h

Structure (SMILES)	GI50 [µM]	TGI [µM]
Cc1ncc(CCCN(C)C)cc1Nc1ncc2c(n1)-c1ccc(C(F)(F)F)cc1NC(=S)C2	0.0312	0.11
COc1ccc(-c2nn(-c3ccc(NC(=O)Nc4cc(C(F)(F)F)cc(C(F)(F)F)c4)cc3)cc2-c2ccncc2)cc1Cl	1.87	5.37
O=C(CCC1OCCO1)Nc1cc(NCc2ccccc2)ccc1OCc1ccccc1		94.6
ClCc1cccc(Cn2cnc3nc(Cl)nc(Cl)c32)c1	0.189	0.496
